According to patent publication US6835378B2, “Method and compositions for inhibiting thrombin-induced coagulation” (The Texas A&M University System University, priority 2001, dated 2004):
Entries after “also recorded” stand apart in the source; their conditions may differ.

Legend:
[1] = target: T1, binding of rSdrG(50-597) to Fg (Staphylococcus epidermidis, UniProt Q9KI13); test: ELISA: inhibition of rSdrG(50-597) binding to immobilized Fg by synthetic peptides; set-up: species or system S. epidermidis; conditions: for inhibition of rSdrG(50-597) binding to Fg: 50 nM rSdrG(50-597) pre-incubated with peptide 1 h
T1 construct: made in house; host or cells: E. coli Topp3
T1 sequence (Q9KI13 50-597): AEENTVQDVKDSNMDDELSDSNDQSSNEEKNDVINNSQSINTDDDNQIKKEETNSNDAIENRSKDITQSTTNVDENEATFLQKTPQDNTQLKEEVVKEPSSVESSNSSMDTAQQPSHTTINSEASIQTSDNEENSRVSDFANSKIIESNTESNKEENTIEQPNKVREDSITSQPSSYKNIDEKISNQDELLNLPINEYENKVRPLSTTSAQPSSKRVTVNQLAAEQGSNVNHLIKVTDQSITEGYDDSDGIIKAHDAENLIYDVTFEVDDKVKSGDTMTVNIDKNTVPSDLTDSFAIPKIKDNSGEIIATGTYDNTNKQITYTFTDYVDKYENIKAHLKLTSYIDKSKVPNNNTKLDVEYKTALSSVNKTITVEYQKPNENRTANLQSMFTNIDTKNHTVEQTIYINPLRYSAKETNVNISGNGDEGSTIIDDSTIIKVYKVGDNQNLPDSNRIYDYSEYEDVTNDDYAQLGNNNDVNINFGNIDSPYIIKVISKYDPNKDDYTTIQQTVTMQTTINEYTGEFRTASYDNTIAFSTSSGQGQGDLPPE
Procedure: ELISA—Microtiter plates (Immulon 4, Dynatech Laboratories Inc.) were coated with 1 μg of Fg (Enzyme Research Labs) in PBS, pH 7.5 for 18 h at 4° C. Plates were washed three times with PBS, 0.05% Tween 20 (PBST) and blocked with 1% (w/v) bovine serum albumin (BSA) for 1 h at room temperature. Plates were washed three times with PBST and rSdrG(50-597), diluted into PBS, was added to the wells and the plate was incubated for 1 h at room temperature. Plates were washed three times with PBST and bound rSdrG(50-597) was detected by adding a 1:2000 dilution of an anti-His-tag mAb (Clontech) in PBST, 0.1% BSA. Plates were incubated for 1 h at room temperature and then washed three times with PBST. A 1:2000 dilution of goat anti-mouse alkaline phosphatase (AP)-conjugated polyclonal antibodies (Bio-Rad) in PBST, 0.1% BSA were added to the wells and the plate was incubated for 1 h at room temperature. Plates were washed three times with PBST and developed with p-nitrophenyl phosphate (Sigma) in 1 M diethanolamine, 0.5 mM MgCl2, pH 9.0 at room temperature for ˜30 min. Plates were read at 405 nm using an ELISA plate reader (Thermomax microplate reader, Molecular Devices).
In the inhibition experiments, 50 nM rSdrG(50-597) in PBS was pre-incubated with the indicated amounts of selected peptides for 1 h at room temperature. The sample mixtures were added to the Fg-coated wells and bound rSdrG(50-597) was detected as described above.

rSdrG(50-597) = rSdrG(50-597) (Staphylococcus epidermidis, UniProt Q9KI13); conditions: increasing amounts of unlabeled peptide
Procedure: Fluorescence Polarization—Fluorescence polarization was used to determine the equilibrium dissociation constant (KD) for the interaction of rSdrG(50-597) with peptide β1-25. The peptide was labeled with fluorescein as previously described (18). Increasing concentrations of rSdrG(50-597) in PBS, pH 7.5, were incubated with 10 nM labeled peptide for 3 h in the dark at room temperature. Reactions were allowed to reach equilibrium. Polarization measurements were taken with a Luminescence Spectrometer LS50B (Perkin Elmer) using FL WinLab software (Perkin Elmer). Binding data was analyzed by nonlinear regression used to fit a binding function as defined by the following equation: [formula]
Determination of Equilibrium Dissociation Constants (KD)—An equilibrium dissociation constant (KD) for the interaction of rSdrG(50-597) with the Fg Bβ chain peptide β1-25 was determined.

[2] = in vivo; cited from earlier work

| Substance | inhibition of rSdrG(50-597) binding to Fg [1] | also measured |
| --- | --- | --- |
| ADSEGEGDFLAEGGGVR (listed as Staphylococcus epidermidis) [FpA] | essentially inactive | – |
| FSARGHRPLD [β11-20] | essentially inactive | – |
| FSERKDLHQGEGNPREFVENDAKGR [β1-25S] | did not interfere | inhibition of rSdrG(50-597) binding to fluorescein-labeled β1-25 (rSdrG(50-597)): not |
| NEEGFFSA RGHRPLD [β6-20] | Effective inhibition; also recorded: potent inhibitor | – |
| NEEGFFSARGHRPLDKKREE [β6-25] | inhibit the binding of rSdrG(50-597) to Fg in a concentration dependent manner | – |
| QGVNDNEEGFFSAR [FpB] | inhibited the binding of rSdrG(50-597) in a concentration dependent manner; also recorded: poor inhibitory activity | activity relative to peptide β1-25 (fold less active) ([1]; inhibition ELISA, FIG. 4C): at least 10 fold |
| QGVNDNEEGFFSARGHRPLDKK REE [β1-25] | inhibit the binding of rSdrG(50-597) to Fg in a concentration dependent manner | inhibition of rSdrG(50-597) binding to fluorescein-labeled β1-25 (rSdrG(50-597)): inhibited binding |
| heparin | – | major bleeding, patients [2]: 1-33%; thrombocytopenia, patients [2]: 1-5% |
